The subject of assay [1] is E. faecalis ICB 27159. In kind it is cell-based, Entercococcus faecalis. The procedure: (§1) Determination of the Minimum Inhibitory Concentration (MIC):
(§2) The MIC is determined in the liquid dilution test in accordance with the NCCLS guidelines. Overnight cultures of Staphylococcus aureus 133, Entercococcus faecalis 27159, E. faecium and Streptococcus pneumoniae G9a are incubated with the described test substances in a 1:2 dilution series. The MIC determination is carried out with a cell count of 10^5 microorganisms per ml in Isosensitest medium (Difco, Irvine/USA), with the exception of S. pneumoniae which is tested in BHI broth (Difco, Irvine/USA) with 10% bovine serum at a cell count of 10^6 microorganisms per ml. The cultures are incubated at 37° C. for 18-24 hours, S. pneumoniae in the presence of 10% CO2.
(§3) The lowest substance concentration in each case at which visible bacterial growth […] is defined as the MIC. The MIC values are reported in μg/ml.

The test system of assay [2] is E. faecium L4001. Format: cell-based. The procedure:
as §1, §2, §3

The test system of assay [3] is Staphylococcus aureus 133. In kind it is cell-based. The method, then: as §1, §2, §3
Assay [4] deals with Streptococcus pneumoniae G9a. Format: cell-based. The procedure:
as §1, §2, §3

The mark [5] stands for this setting: Isosensitest medium, 10^5 microorganisms per ml, 37° C., 18-24 hours.
Setting [6] is: BHI broth with 10% bovine serum, 10^6 microorganisms per ml, 37° C., 18-24 hours, 10% CO2.

The values that follow come from US7718611B2, “Cyclic nonapeptide amides” (priority 2004, dated 2010).

In brackets after ≈: the same amount, converted by molar mass. Like-named read-outs stand apart in the source and are kept apart here. Starred links: 1 amine or outer side, 2 acyl side, 3 side chain; linkers in the order of their positions; H or OH if unused. Positions of bridges follow the written chain, without caps; N, C: chain ends. Non-standard residues stand in square brackets, D forms with d. Residues, ends and D or L forms follow the SMILES beside them. Phe(3R-OH) = O=C([C@@H](N[*:1])[C@H](O[*:3])c1ccccc1)[*:2]; Phe(βR-NH) = O=C([C@@H](N[*:1])[C@H](N[*:3])c1ccccc1)[*:2]; X2 = O=C([C@H](Cc1ccc(C(F)(F)F)nc1)N[*:1])[*:2]; Asn(3S-OH) = NC(=O)[C@@H](O)[C@H](N)C(=O)O; Leu(3R-OH) = CC(C)[C@@H](O)[C@H](N)C(=O)O; X1 = Cc1cccc(C[C@H](N[*:1])C(=O)[*:2])n1; dAla(TMS) = C[Si](C)(C)C[C@@H](N)C(=O)O; d(tBuAla) = CC(C)(C)C[C@@H](N)C(=O)O; tBuAla = CC(C)(C)C[C@H](N)C(=O)O; 3Pal = N[C@@H](Cc1cccnc1)C(=O)O; aThr = C[C@H](O)[C@H](N)C(=O)O

Turning to `CC[C@H](C)[C@@H]1NC(=O)[C@@H](CCCNC(=N)N)NC(=O)[C@H](CC(C)C)NC(=O)[C@H]([C@H](O)C(C)C)NC(=O)[C@@H](NC(=O)[C@H](CC(C)(C)C)NC(=O)[C@H](N)CC(C)(C)C)[C@@H](c2ccccc2)NC(=O)[C@H](CO)NC(=O)[C@H]([C@H](O)C(N)=O)NC(=O)CNC(=O)[C@H]([C@H](C)O)NC1=O` [Example 1, [3-tert-Butyl-D-alanyl]-[3-tert-butyl-L-alanyl]-[(3R)-3-amino-L-phenylalanyl)]-[(3R)-3-hydroxy-L-leucyl]-L-leucyl-D-arginyl-L-isoleucyl-L-allothreonyl-glycyl-[(3S)-3-hydroxy-L-asparaginyl]-L-serine C^1.11—N^3.3-lactam bistrifluoroacetate] (H-[d(tBuAla)][tBuAla][Phe(βR-NH)][Leu(3R-OH)]L[dR]I[aThr]G[Asn(3S-OH)]S; lactam 3-C), in assay [1] (setting [5]), the “MIC E. faecalis ICB 27159” value turned out to be 0.25 µg/mL (≈ 0.192 µM). Also, the “MIC E. faecium L4001” value in assay [2] (setting [5]) amounted to 0.25 µg/mL (≈ 0.192 µM). For the same molecule, in assay [3] (setting [5]), the “MIC S. aureus 133” value is 0.5 µg/mL (≈ 0.384 µM). The “MIC S. pneumoniae G9a” value in assay [4] (setting [6]) is 0.063 µg/mL (≈ 0.0483 µM).

For the molecule `CC[C@H](C)[C@@H]1NC(=O)[C@@H](CCCNC(=N)N)NC(=O)[C@H](CC(C)C)NC(=O)[C@H]([C@H](O)C(C)C)NC(=O)[C@@H](NC(=O)[C@H](CC(C)C)NC(=O)[C@H](N)CC(C)C)[C@@H](c2ccccc2)OC(=O)[C@H](CO)NC(=O)[C@H]([C@H](O)C(N)=O)NC(=O)CNC(=O)[C@H]([C@H](C)O)NC1=O` [Example 1A, reference compound] (H-[dL]L[Phe(3R-OH)][Leu(3R-OH)]L[dR]I[aThr]G[Asn(3S-OH)]S; ester 3-C), the “MIC E. faecalis ICB 27159” value in assay [1] (ICB 27159) came out at 0.5 µg/mL (≈ 0.392 µM). Also, the “MIC E. faecium L4001” value in assay [2] (L4001) worked out at 0.5 µg/mL (≈ 0.392 µM). Also, the “MIC S. aureus 133” value in assay [3] (133) amounted to 0.5 µg/mL (≈ 0.392 µM). Also, the “MIC S. pneumoniae G9a” value in assay [4] (G9a) came to 0.063 µg/mL (≈ 0.0494 µM).

Turning to `CC[C@H](C)[C@@H]1NC(=O)[C@@H](CCCNC(=N)N)NC(=O)[C@H](CC(C)C)NC(=O)[C@H]([C@H](O)C(C)C)NC(=O)[C@@H](NC(=O)[C@H](Cc2cccnc2)NC(=O)[C@H](N)C[Si](C)(C)C)[C@@H](c2ccccc2)NC(=O)[C@H](CO)NC(=O)[C@H]([C@H](O)C(N)=O)NC(=O)CNC(=O)[C@H]([C@H](C)O)NC1=O.O=C(O)C(F)(F)F.O=C(O)C(F)(F)F.O=C(O)C(F)(F)F` [Example 3] (H-[dAla(TMS)][3Pal][Phe(βR-NH)][Leu(3R-OH)]L[dR]I[aThr]G[Asn(3S-OH)]S; lactam 3-C), the “MIC E. faecalis ICB 27159” value in assay [1] (setting [5]) amounted to 2 µg/mL. In assay [3] (setting [5]), the “MIC S. aureus 133” value turned out to be 0.125 µg/mL. Besides, in assay [4] (setting [6]), the “MIC S. pneumoniae G9a” value came out at 0.25 µg/mL.

Regarding `CC[C@H](C)[C@@H]1NC(=O)[C@@H](CCCNC(=N)N)NC(=O)[C@H](CC(C)C)NC(=O)[C@H]([C@H](O)C(C)C)NC(=O)[C@@H](NC(=O)[C@H](Cc2cccc(C)n2)NC(=O)[C@H](N)CC(C)(C)C)[C@@H](c2ccccc2)NC(=O)[C@H](CO)NC(=O)[C@H]([C@H](O)C(N)=O)NC(=O)CNC(=O)[C@H]([C@H](C)O)NC1=O.O=C(O)C(F)(F)F.O=C(O)C(F)(F)F.O=C(O)C(F)(F)F` [Example 6] (H-[d(tBuAla)][X1][Phe(βR-NH)][Leu(3R-OH)]L[dR]I[aThr]G[Asn(3S-OH)]S; lactam 3-C), the “MIC E. faecalis ICB 27159” value in assay [1] (ICB 27159) came to 0.5 µg/mL. The “MIC S. aureus 133” value in assay [3] (133) is 0.25 µg/mL. Besides, the “MIC S. pneumoniae G9a” value in assay [4] (G9a) stood at 0.25 µg/mL.

Regarding `CC[C@H](C)[C@@H]1NC(=O)[C@@H](CCCNC(=N)N)NC(=O)[C@H](CC(C)C)NC(=O)[C@H]([C@H](O)C(C)C)NC(=O)[C@@H](NC(=O)[C@H](Cc2ccc(C(F)(F)F)nc2)NC(=O)[C@H](N)CC(C)(C)C)[C@@H](c2ccccc2)NC(=O)[C@H](CO)NC(=O)[C@H]([C@H](O)C(N)=O)NC(=O)CNC(=O)[C@H]([C@H](C)O)NC1=O.O=C(O)C(F)(F)F.O=C(O)C(F)(F)F` [Example 7] (H-[d(tBuAla)][X2][Phe(βR-NH)][Leu(3R-OH)]L[dR]I[aThr]G[Asn(3S-OH)]S; lactam 3-C), the “MIC E. faecalis ICB 27159” value in assay [1] (ICB 27159) worked out at 0.25 µg/mL. Besides, the “MIC S. aureus 133” value in assay [3] (133) turned out to be 0.125 µg/mL. Besides, in assay [4] (G9a), the “MIC S. pneumoniae G9a” value was determined as 0.125 µg/mL.

Turning to `CC[C@H](C)[C@@H]1NC(=O)[C@@H](CCCNC(=N)N)NC(=O)[C@H](CC(C)C)NC(=O)[C@H]([C@H](O)C(C)C)NC(=O)[C@@H](NC(=O)[C@H](CC(C)(C)C)NC(=O)[C@H](N)CC(C)C)[C@@H](c2ccccc2)NC(=O)[C@H](CO)NC(=O)[C@H]([C@H](O)C(N)=O)NC(=O)CNC(=O)[C@H]([C@H](C)O)NC1=O.O=C(O)C(F)(F)F.O=C(O)C(F)(F)F` [Example 9] (H-[dL][tBuAla][Phe(βR-NH)][Leu(3R-OH)]L[dR]I[aThr]G[Asn(3S-OH)]S; lactam 3-C), the “MIC E. faecalis ICB 27159” value in assay [1] (ICB 27159) was found to be 0.5 µg/mL. Moreover, the “MIC S. aureus 133” value in assay [3] (133) stood at 0.25 µg/mL. Besides, the “MIC S. pneumoniae G9a” value in assay [4] (G9a) worked out at 0.125 µg/mL.
